Values after ≈ are worked out from the molar mass of the structure shown.
Columns and labels:
[1] = Thermodynamic solubility of the polymorphic forms in water (shake flask technique, UV); type: physicochemical; settings: pure water, over night at 25° C., triplicate
Experimental: The thermodynamic solubility of FORM 1, FORM 2, and FORM 3 of 1,6-Bis [3-(3-carboxymethylphenyl)-4-(2-α-D-mannopyranosyloxy)-phenyl] hexane (compound of formula (I)) was determined in water by employing the shake flask technique. The sample was added to pure water in a Safelock-tube (Eppendorf, Germany) under vigorous shaking until a white precipitate was formed. The saturated solution was incubated over night at 25° C. in an Eppendorf Thermomixer operated at 700 RPM. The suspension was cleared by centrifugation at 13.000 RPM at room temperature, and the supernatant was carefully collected. The supernatant was further purified by vacuum-filtration through a Millipore solubility filter plate (Millipore, Molsheim, France).
The UV absorption of the filtrate was measured against pure water using a Spectramax250 (Molecular Devices, Sunnyvale, Calif.) operated with Softmax Pro v. 4.8 software, using the application “Mscreen solubility quantify” in the ADME package. The sample concentration was calculated using a 5-point linear calibration line of the compound of formula (I) in acetonitrile:pure water (1:1 vol:vol). Measurements have been performed in triplicate.

[2] = Thermodynamic solubility of the polymorphic forms in organic solvents (HPLC quantification); type: physicochemical
Experimental: The thermodynamic solubility of FORM 1, FORM 2, FORM 4, and FORM 6 of 1,6-Bis [3-(3-carboxymethylphenyl)-4-(2-α-D-mannopyranosyloxy)-phenyl] hexane (compound of formula (I)) was determined in several organic solvents by suspending sufficient compound to give a maximum final concentration. Quantification was by reverse phase HPLC with gradient solution with reference to a standard solution of FORM B of the compound of formula (I) at 0.25 mg/ml. The suspensions were equilibrated at 27° C. for 24 hours with shaking. All suspensions were filtered though a glass fibre C filter. The filtrate was then diluted by an appropriate factor in 50:50 ethanol:water apart from isopropyl myristate which was diluted in ethanol to avoid emulsion formation.
Solubilities were calculated using the peak areas determined by the peak found at the same retention time as the principal peak in the standard injection.

[3] = PEG 300, equilibrated at 27° C. for 24 hours with shaking
[4] = Triacetin, equilibrated at 27° C. for 24 hours with shaking
[5] = ethanol, equilibrated at 27° C. for 24 hours with shaking
[6] = equilibrated at 27° C. for 24 hours with shaking

With `O=C(O)Cc1cccc(-c2cc(CCCCCCc3ccc(O[C@H]4O[C@H](CO)[C@@H](O)[C@H](O)[C@@H]4O)c(-c4cccc(CC(=O)O)c4)c3)ccc2O[C@H]2O[C@H](CO)[C@@H](O)[C@H](O)[C@@H]2O)c1` [FORM 1, 1,6-Bis [3-(3-carboxymethylphenyl)-4-(2-α-D-mannopyranosyloxy)-phenyl] hexane] as the compound, how does the solubility ([1]; 25 °C, water, thermodynamic from solid) read?
Its solubility is 0.022 mg/mL (≈ 0.0255 mM).

And the “Solubility ranking among the FORMS in PEG 300 (in words)” value ([2]; PEG 300, compared with other FORMS)?
Its value is “highest solubility”.

And the “Solubility in PEG 300 (Polyethylene glycol 300)” value [2, 3]?
Its value is 205 mg/mL (≈ 238 mM).

And the “Solubility ranking among the FORMS in Triacetin (in words)” value ([2]; Triacetin, compared with other FORMS)?
The value was “highest solubility”.

What about the “Solubility in Triacetin (glycerin triacetate)” value (from here on “Solubility in Triacetin”) [2, 4] of the same compound?
Its value is 0.056 mg/mL (≈ 0.0649 mM).

And the “Solubility in EtOH (Ethanol)” value [2, 5]?
The value was 4.2 mg/mL (≈ 4.87 mM).

What about the “Solubility in IPA (Isopropyl alcohol)” value [2, 6] of the same compound?
Its value is 3.9 mg/mL (≈ 4.52 mM).

And the solubility at 24 h ([2]; propylene glycol, 27 °C, organic solvent or mixture, thermodynamic from solid, equilibrated at 27° C. for 24 hours with shaking)?
Its solubility at 24 h is 199 mg/mL (≈ 231 mM).

What about the “Solubility ranking among the FORMS in propylene glycol (in words)” value ([2]; propylene glycol, compared with other FORMS) of the same compound?
The value was “highest solubility”.

For `O=C(O)Cc1cccc(-c2cc(CCCCCCc3ccc(O[C@H]4O[C@H](CO)[C@@H](O)[C@H](O)[C@@H]4O)c(-c4cccc(CC(=O)O)c4)c3)ccc2O[C@H]2O[C@H](CO)[C@@H](O)[C@H](O)[C@@H]2O)c1` [FORM 2, 1,6-Bis [3-(3-carboxymethylphenyl)-4-(2-α-D-mannopyranosyloxy)-phenyl] hexane], which Solubility in water [1] is on record?
The Solubility in water was 0.015 mg/mL (≈ 0.0174 mM).

What about the “Solubility in PEG 300 (Polyethylene glycol 300)” value [2, 3] of the same compound?
Its value is 102 mg/mL (≈ 118 mM).

What about the “Solubility in Triacetin” value [2, 4] of the same compound?
Its value is 0.0083 mg/mL (≈ 0.00962 mM).

What about the “Solubility in EtOH (Ethanol)” value [2, 5] of the same compound?
Its value is 4.2 mg/mL (≈ 4.87 mM).

And the “Solubility in IPA (Isopropyl alcohol)” value [2, 6]?
Its value is 0.52 mg/mL (≈ 0.603 mM).

And the “Solubility in Propylene Glycol” value ([2]; propylene glycol, equilibrated at 27° C. for 24 hours with shaking)?
The value was 104 mg/mL (≈ 121 mM).

For `O=C(O)Cc1cccc(-c2cc(CCCCCCc3ccc(O[C@H]4O[C@H](CO)[C@@H](O)[C@H](O)[C@@H]4O)c(-c4cccc(CC(=O)O)c4)c3)ccc2O[C@H]2O[C@H](CO)[C@@H](O)[C@H](O)[C@@H]2O)c1` [FORM 3, 1,6-Bis [3-(3-carboxymethylphenyl)-4-(2-α-D-mannopyranosyloxy)-phenyl] hexane], which Solubility in water [1] is on record?
Its Solubility in water is 0.014 mg/mL (≈ 0.0162 mM).

For `O=C(O)Cc1cccc(-c2cc(CCCCCCc3ccc(O[C@H]4O[C@H](CO)[C@@H](O)[C@H](O)[C@@H]4O)c(-c4cccc(CC(=O)O)c4)c3)ccc2O[C@H]2O[C@H](CO)[C@@H](O)[C@H](O)[C@@H]2O)c1` [FORM 4, 1,6-Bis [3-(3-carboxymethylphenyl)-4-(2-α-D-mannopyranosyloxy)-phenyl] hexane], which “Solubility in PEG 300 (Polyethylene glycol 300)” value ([2]; PEG 300, equilibrated at 27° C. for 24 hours with shaking, listed as 4) is on record?
Its value is 159 mg/mL (≈ 184 mM).

What about the “Solubility in Triacetin” value [2, 4] of the same compound?
Its value is 0.02 mg/mL (≈ 0.0232 mM).

What about the “Solubility ranking among the FORMS in ethanol (in words)” value ([2]; ethanol, compared with FORM 1, 2, 4, 6) of the same compound?
The value was “highest solubility”.

What about the “Solubility in EtOH (Ethanol)” value ([2]; ethanol, equilibrated at 27° C. for 24 hours with shaking, listed as 4) of the same compound?
The value was 48 mg/mL (≈ 55.6 mM).

What about the “Solubility in IPA (Isopropyl alcohol)” value ([2]; equilibrated at 27° C. for 24 hours with shaking, listed as 4) of the same compound?
Its value is 1.2 mg/mL (≈ 1.39 mM).

And the “Solubility in Propylene Glycol” value ([2]; propylene glycol, equilibrated at 27° C. for 24 hours with shaking, listed as 4)?
Its value is 165 mg/mL (≈ 191 mM).

Which results are given for `O=C(O)Cc1cccc(-c2cc(CCCCCCc3ccc(O[C@H]4O[C@H](CO)[C@@H](O)[C@H](O)[C@@H]4O)c(-c4cccc(CC(=O)O)c4)c3)ccc2O[C@H]2O[C@H](CO)[C@@H](O)[C@H](O)[C@@H]2O)c1` [FORM 6, 1,6-Bis [3-(3-carboxymethylphenyl)-4-(2-α-D-mannopyranosyloxy)-phenyl] hexane]?
Solubility ranking among the FORMS in IPA (in words) ([2]; IPA, compared with FORM 1, 2, 4, 6): highest solubility; Solubility in PEG 300 (Polyethylene glycol 300) ([2]; PEG 300, equilibrated at 27° C. for 24 hours with shaking, listed as 6): 122 mg/mL (≈ 141 mM); Solubility in EtOH (Ethanol) ([2]; ethanol, equilibrated at 27° C. for 24 hours with shaking, listed as 6): 20 mg/mL (≈ 23.2 mM); Solubility in IPA (Isopropyl alcohol) ([2]; equilibrated at 27° C. for 24 hours with shaking, listed as 6): 27 mg/mL (≈ 31.3 mM); Solubility in Propylene Glycol ([2]; propylene glycol, equilibrated at 27° C. for 24 hours with shaking, listed as 6): 170 mg/mL (≈ 197 mM)

Reference: US8039601B1, “Crystalline forms of 1,6-Bis [3-(3-carboxymethylphenyl)-4-(2-α-D-mannopyranosyloxy)-phenyl] hexane” (Revotar Biopharmaceuticals AG, priority 2006, dated 2011)
